This is an account of results in patent US6194437A (Warner-Lambert Company, priority 1999, dated 2001).

The term Ki denotes the equilibrium dissociation constant of an inhibitor or competing ligand from its target. Low values mean a stronger hold on the target, high ones a looser hold on the target.

Test [1] has as its target T1, cloned human NMB-preferring receptors expressed in CHO cells (Homo sapiens, UniProt P28336).
T1 construct: functional calcium (Fura-2) and Cytosensor acidification assays
Put plainly: Measurement of extracellular acidification (CYTOSENSOR) in CHO-NMB cells. Type of test: cell-based. Conditions: NMB-preferring receptor (BB1), antagonist 30 minutes prior to agonist, 37° C. The text has this:
(§1) The compounds of the invention have been tested in in vitro functional assays using cloned human NMB-preferring receptors expressed in CHO cells.
(§2) Protocols for functional assays:
2. Measurement of extracellular acidification (CYTOSENSOR)
This acidification rate is detected as a change in potential across a silicon light addressable sensor, during periods of media cessation (McConnell, et al., 1992).
CHO-NMB Cells seeded on polycarbonate microporous capsule cups were placed insensor chambers at 37° C. inside the microphysiometer, and maintained by a flow of nonbuffering Ham's F12 nutrient media (growth media without NaHCO3, pH 7.3-7.4) at approximately 120 μL/min. The flow was halted for 22 seconds at the end of each 2 minute repeated cycle, and the rate of acidification (μ volts/sec) measured for 15 seconds during that period.
Agonists were introduced sequentially every 28 to 30 minutes to the perfusing media, 20 seconds before flow-off periods, and removed after two rate measurements via the automatic valve-switch.
The effects of various antagonists were determined after continuous perfusion 30 minutes prior to, and throughout the application of agonists. All agents were applied at the working pH of the media.

For test [2], the target named is T1, cloned human NMB-preferring receptors expressed in CHO cells. The experiment in a line: Measurement of intracellular calcium levels ([Ca2+]i mobilization, Fura-2) in CHO cells. It is filed as cell-based. Particulars: NMB-preferring receptor (BB1), read-out: [Ca2+]i Mobilization KE. The method, then:
as §1, §2
1. Measurement of intracellular calcium levels
Culture of Chinese hamster ovary cells
Chinese hamster ovary cells were routinely grown as monolayers in Ham's F12 nutrient mixture supplemented with 10% FBS and […], and maintained at 37° C. under 5% CO2. Cells were passaged every 3 to 4 days. At each passaging, cells were seeded at a density of 3 to 6 million per 175 cm^2 flask. […]
Plated cells were incubated with 2 μM Fura-2-AM for between 45 and 120 minutes at 25° C. to 29° C. […] Single coverslips were then mounted in a chamber on top of an inverted fluorescence microscope and perfused with a Krebs-Hepes assay buffer (composition in mM: NaCl 118, KCl 4.7, MgSO4 1.2, CaCl^2 1.2, KH^2 PO^4 1.2, Hepes 10, glucose 11, pH 7.2 at 37° C.) {332}.
Measurements of [Ca^2+ ]^i in individual cells were made from the fluorescence ratio (excitations […] for Fura-2) using a specially designed filter wheel assembly, CCD camera or photomuliplier tubes, and specially designed suites of software (MAGICAL OR phocal, Applied Imaging, Sunderland, UK) which samples emission following excitation at different wavelengths at regular intervals. […]
In general terms: Calcium assays in cells follow changes in intracellular calcium, usually with a dye or a luminescent sensor.

Test [3] deals with T2, cloned human NMB-preferring receptor (BB1) (Homo sapiens, UniProt P28336).
T2 construct: expressed in transfected cells
The experiment in a line: Receptor binding assay, cloned human NMB-preferring receptor (BB1), [125I][Tyr4]bombesin displacement. Particulars: CHO-K1 cell membranes, 60 minutes incubation. On the procedure: (§3) For binding experiments, cells were harvested by trypsinization, and stored frozen at -70° C. in Ham's F12 culture medium containing 5% DMSO until required. On the day of use, cells were thawed rapidly, diluted with an excess of culture medium, and centrifuged for 5 minutes at 2000 g. Cells were resuspended in 50 mM Tris-HCl assay buffer (pH 7.4 at 21° C., containing 0.02% BSA, 40 μg/ml bacitracin, 2 μg/mL chymostatin, 4 μg/mL leupeptin, and 2 μM phosphoramidon), counted, and polytronned (setting 5, 10 sec) before centrifuging for 10 minutes at 28,000 g. The final pellet was resuspended in assay buffer to a final cell concentration of 1.5×10^5 /mL. […] Radioactivity bound was determined using a gamma counter.

Test [4] has as its target T3, cloned human GRP-preferring receptor (BB2) (Homo sapiens, UniProt P30550).
T3 construct: expressed in transfected cells
The experiment in a line: Receptor binding assay, cloned human GRP-preferring receptor (BB2), [125I][Tyr4]bombesin displacement. Conditions: CHO-K1 cell membranes, 90 minutes incubation. On the procedure:
as §3, with “The compounds of the invention have been evaluated in receptor binding assays which measure the affinity of the novel compounds in a cloned human NMB-preferring receptor (BB1) assay and in a cloned human GRP-preferring receptor (BB2) assay. Protocol for Binding Assays […] For” for “For”

T1 sequence (P28336 whole entry): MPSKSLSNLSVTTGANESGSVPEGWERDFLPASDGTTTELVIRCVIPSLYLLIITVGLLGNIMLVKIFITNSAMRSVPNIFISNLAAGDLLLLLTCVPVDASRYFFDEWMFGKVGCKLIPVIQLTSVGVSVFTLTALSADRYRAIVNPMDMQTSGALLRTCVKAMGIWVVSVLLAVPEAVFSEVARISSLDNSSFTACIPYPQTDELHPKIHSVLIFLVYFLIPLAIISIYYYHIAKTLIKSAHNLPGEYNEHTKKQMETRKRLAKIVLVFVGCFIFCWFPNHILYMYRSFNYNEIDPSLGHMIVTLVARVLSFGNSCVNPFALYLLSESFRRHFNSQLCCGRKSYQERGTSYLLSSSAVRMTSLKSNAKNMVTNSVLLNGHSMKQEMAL
T2 sequence (P28336 whole entry): as above
T3 sequence (P30550 whole entry): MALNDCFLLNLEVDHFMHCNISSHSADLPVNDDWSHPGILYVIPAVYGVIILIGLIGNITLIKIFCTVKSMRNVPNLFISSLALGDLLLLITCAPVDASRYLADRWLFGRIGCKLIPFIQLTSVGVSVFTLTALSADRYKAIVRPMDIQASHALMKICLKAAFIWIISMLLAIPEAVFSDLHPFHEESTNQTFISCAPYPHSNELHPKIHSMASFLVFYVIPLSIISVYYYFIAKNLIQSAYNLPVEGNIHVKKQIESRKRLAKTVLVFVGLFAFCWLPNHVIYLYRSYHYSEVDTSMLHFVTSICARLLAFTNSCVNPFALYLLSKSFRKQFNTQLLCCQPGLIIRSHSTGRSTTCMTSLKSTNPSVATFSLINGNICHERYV

`CC(C)c1cccc(C(C)C)c1NC(=O)N[C@@](C)(Cc1c[nH]c2ccccc12)C(=O)NCC1(c2ccccn2)CCCCC1` [Example 1, 2-[3-(2,6-Diisopropyl-phenyl)-ureido]-3-(1H-indol-3-yl)-2-methyl-N-(1-pyridin-2-yl-cyclohexylmethyl)-propionamide]: the “Acidification Response appKB” value in test [1] is recorded as 7.6. Also, the Kb in test [2] was 18 nM. Further, the values for the inhibition constant (Ki) in test [3] and in test [4] were 5 nM and greater than 10000 nM, respectively.

On to `C[C@@](Cc1c[nH]c2ccccc12)(NC(=O)Nc1ccc([N+](=O)[O-])cc1)C(=O)NCC1(c2ccccn2)CCCCC1` [Example 14], for which the “Acidification Response appKB” value in test [1] amounted to 1.0. In addition, the Kb in test [2] worked out at 1.2 nM. Besides, the values for the Ki in test [3] and in test [4] were 0.15 nM and 19 nM, respectively.
